Test results from patent publication US12391683B2, “Therapeutic compounds and methods” (Actio Biosciences, Inc., priority 2022, dated 2025).

Biological target: T1, TRPV6 channels (Homo sapiens, UniProt Q9H1D0)
T1 construct: expressed in transfected cells; host or cells: HEK293
T1 sequence (Q9H1D0 1-765): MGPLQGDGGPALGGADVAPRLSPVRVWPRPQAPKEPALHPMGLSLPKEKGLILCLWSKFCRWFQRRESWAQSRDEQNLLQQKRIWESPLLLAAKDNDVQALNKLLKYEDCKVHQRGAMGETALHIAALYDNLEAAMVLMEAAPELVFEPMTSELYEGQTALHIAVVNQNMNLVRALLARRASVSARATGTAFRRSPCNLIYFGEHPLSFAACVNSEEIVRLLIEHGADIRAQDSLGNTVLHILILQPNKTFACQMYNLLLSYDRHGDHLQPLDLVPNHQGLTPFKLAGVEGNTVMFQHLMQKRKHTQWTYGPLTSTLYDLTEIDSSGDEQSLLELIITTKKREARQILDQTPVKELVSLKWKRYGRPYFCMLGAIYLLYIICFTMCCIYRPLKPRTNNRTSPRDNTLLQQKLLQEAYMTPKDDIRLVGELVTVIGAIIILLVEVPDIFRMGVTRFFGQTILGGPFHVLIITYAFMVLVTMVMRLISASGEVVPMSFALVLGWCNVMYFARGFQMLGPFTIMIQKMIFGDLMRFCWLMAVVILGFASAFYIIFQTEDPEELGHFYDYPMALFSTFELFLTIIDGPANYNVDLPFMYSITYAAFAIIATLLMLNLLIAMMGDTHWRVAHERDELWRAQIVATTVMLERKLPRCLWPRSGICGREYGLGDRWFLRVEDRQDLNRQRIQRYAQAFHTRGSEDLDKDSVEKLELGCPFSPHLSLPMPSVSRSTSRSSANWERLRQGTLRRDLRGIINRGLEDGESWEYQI
Assay: TRP Family FLIPR Assay, TRPV6
Type: cell-based
Settings: antagonist mode; activated with 0.9 mM calcium ion; HEK293 cells; 0.003-10 μM; read-out: IC50 hTRPV6
Procedure: The compound of Example 5 was tested for selectivity against a panel of Human TRP family ion channels in a TRP Family FLIPR Assay as described below. • 1. TRPC3 channels (human TRPC3 variant 1 gene, expressed in HEK293 cells). • 2. TRPC4 channels (human TRPC4 gene, expressed in HEK293 cells). • 3. TRPC5 channels (human TRPC5 gene, expressed in HEK293 cells). • 4. TRPC6 channels (human TRPC6 gene, expressed in HEK293 cells). • 5. TRPM2 channels (human TRPM2 gene, transiently expressed in HEK293 cells). • 6. TRPM3 channels (human TRPM3 gene, transiently expressed in HEK293 cells). • 7. TRPM4 channels (human TRPM4 gene, expressed in CHO cells). • 8. […]
Data acquisition was performed via the FLIPR Control software supplied with the FLIPR System (MDS-AT) and data was analyzed using Microsoft Excel (Microsoft Corp., Redmond, WA) or GraphPad Prism. […]
[formula] where Base is the response at low concentrations of test article, Max is the maximum response at high concentrations, xhalf the EC50, or IC50, the concentration of test article producing either half-maximal activation or inhibition, and rate is the Hill coefficient. […] No assumptions about the fit parameters was made; the fit parameters were determined by the algorithm.
The effect of each test article was evaluated at eight (8) concentrations: 0.003, 0.01, 0.03, 0.1, 0.3, 1, 3 and 10 μM, n≤4 wells/concentration). […]

CC(C)(O)c1cnc(N2C[C@@]3(CC[C@@H](F)[C@](C)(Cn4cnc5ccc(C#N)cc54)C3)OC2=O)cn1 (single isomer, unassigned) [Example 5]
IC50: > 10 µM
